Format in all cases: cell-based
The target in one experiment is T1, BTK^T474I-C481S (Homo sapiens, UniProt Q06187+Q13490, C481S/T474I).
T1 construct: we used a full-length BTK (aa1-659) with a C terminal Tobacco Etch Virus protease (TEV) site; expressed in transfected cells; host or cells: Expi293 (HEK293)
Nature of the experiment: Expi293 dose-dependent degradation of BTK double mutant. To be noted: Expi293 with cIAP1^FL. As for the experimental part: (§1) Gibco Expi293 cell line Transfection Kit (Cat.# A14524) was cultured according to the manufacturers conditions. Cells were grown at 37 °C with 5% CO2 to 4 × 10^6 cells/mL using an orbital shaker set to 95 RPM. Next cells were split to 2 × 10^6 cells/mL and transfected with plasmid DNA at a 1 µg/mL final concentration in Optimem (Gibco 31985070) using the Expifectamine 293 transfection reagent according to manufacturer’s conditions. After approximately 18 h, enhancers 1 and 2 (provided with kit). Viability was typically about 85%. When cIAP1^FL was transfected, it was detected via α-cIAP1 antibody there was typically some autoubiquitination detected, and thus often appeared as a laddered or smeared band via western blotting. When BTK^FL variants were transfected, they were detected using anti-BTK antibody (D3H5).
For dose-dependent degradation assays, cells were plated in a 24-well format and placed on a separate orbital shaker set to 115 RPM. […] Clarified lysate was harvested and quantified using a Pierce BCA Assay Kit (Cat. #23225), and 20 µg of the sample was loaded into a 4–15% Criterion TGX gel (Bio-Rad, 5678085) and transferred to a nitrocellulose membrane (Life Technologies Cat. #IB23001) using an iBlot 2 (Life Technologies Cat. #IB21001). Proteins were detected using an iBind system (Life Technologies SLF2020). […]

The next experiment addresses T2, BTK^FL-F559A (Homo sapiens, UniProt Q06187+Q13490, F559A).
T2 construct: we used a full-length BTK (aa1-659) with a C terminal Tobacco Etch Virus protease (TEV) site; expressed in transfected cells; host or cells: Expi293 (HEK293)
Nature of the experiment: Expi293 dose-dependent degradation of BTK^FL-F559A. To be noted: for BTK^FL-F559A blot signal normalized to DMSO: replicates. The method, then: as §1
For dose-dependent degradation assays, cells were plated in a 24-well format and placed on a separate orbital shaker set to 115 RPM. Each well was treated with prescribed compound concentrations in the same manner as with THP-1 cells, with the exception of using Expifectamine 293 growth medium in place of RPMI 1640 complete media. After approximately 18 h post-treatment cells were harvested, centrifuged at 100 x g at 4 °C, washed twice with ice-cold PBS, and resuspended in RIPA buffer supplemented with a Roche protease inhibitor cocktail (Cat. #11873580001), and benzonase nuclease (Millipore-Sigma Cat# 70664). Each sample was incubated on ice for 30 min with periodic vortexing and centrifuged at 15 Kxg for 20 min. Clarified lysate was harvested and quantified using a Pierce BCA Assay Kit (Cat. #23225), and 20 µg of the sample was loaded into a 4–15% Criterion TGX gel (Bio-Rad, 5678085) and transferred to a nitrocellulose membrane (Life Technologies Cat. #IB23001) using an iBlot 2 (Life Technologies Cat. #IB21001). Proteins were detected using an iBind system (Life Technologies SLF2020). For BTK^T474I and BTK^T474I/C481S we inferred ligand entry into cells via the autoubiquitination and dose-dependent degradation of cIAP1^FL,[58].
Dose-dependent Degradation was analyzed using ImageJ (NIH, version 1.50i). Densiometric analysis was performed, normalized to DMSO signal, and analyzed using GraphPad Prism (Version 9.0.0 (121)). Non-linear fit one-phase decay analysis was used to obtain DC50 values. When we observed a hook effect, some points were excluded as part of the fit. In Supplementary Fig. 7B the complete curve was fit using GraphPad Prism non-linear regression bell-shaped curve where X is the concentration. However, using this method we were unable to obtain stable values for our DC50. SEM error was plotted for each point. When determining statistically significant differences, we used a two-sided student’s unpaired T-Test.

A further experiment deals with T3, BTK^FL (Homo sapiens, UniProt Q06187+Q13490).
T3 construct: we used a full-length BTK (aa1-659) with a C terminal Tobacco Etch Virus protease (TEV) site; expressed in transfected cells; host or cells: Expi293 (HEK293)
The experiment in a line: Tetracycline-inducible (T-REx) cIAP1^FL degradation of pre-formed BTK^FL~BCCov in Expi293. To be noted: pre-formed BTK^FL~BCCov (20 µM, 18 h), then tetracycline induction of cIAP1^FL. The method, then:
For assays involving inducible cIAP1 expression, 18 h after compound treatment cells were treated with a final concentration of 1.0 µg/mL tetracycline (Teknova Cat. #T3325) and shaken for another 18 h. These samples were processed for western blotting as detailed above. Washout condition consisted of 4 × 10 mL PBS resuspension, centrifugation, and removal repeated for four cycles before resuspension in cellular media.

Each structure is given as a SMILES string. Values joined by “and” are separate entries in the source; they are usually repeats but may differ in a detail not shown here. Equal values may be shown once.

We go through 1 compound from publication PMC9981747, “A covalent BTK ternary complex compatible with targeted protein degradation” (Nature Communications, 2023).

T2 sequence (Q06187 whole entry F559A, the tested form may be a part): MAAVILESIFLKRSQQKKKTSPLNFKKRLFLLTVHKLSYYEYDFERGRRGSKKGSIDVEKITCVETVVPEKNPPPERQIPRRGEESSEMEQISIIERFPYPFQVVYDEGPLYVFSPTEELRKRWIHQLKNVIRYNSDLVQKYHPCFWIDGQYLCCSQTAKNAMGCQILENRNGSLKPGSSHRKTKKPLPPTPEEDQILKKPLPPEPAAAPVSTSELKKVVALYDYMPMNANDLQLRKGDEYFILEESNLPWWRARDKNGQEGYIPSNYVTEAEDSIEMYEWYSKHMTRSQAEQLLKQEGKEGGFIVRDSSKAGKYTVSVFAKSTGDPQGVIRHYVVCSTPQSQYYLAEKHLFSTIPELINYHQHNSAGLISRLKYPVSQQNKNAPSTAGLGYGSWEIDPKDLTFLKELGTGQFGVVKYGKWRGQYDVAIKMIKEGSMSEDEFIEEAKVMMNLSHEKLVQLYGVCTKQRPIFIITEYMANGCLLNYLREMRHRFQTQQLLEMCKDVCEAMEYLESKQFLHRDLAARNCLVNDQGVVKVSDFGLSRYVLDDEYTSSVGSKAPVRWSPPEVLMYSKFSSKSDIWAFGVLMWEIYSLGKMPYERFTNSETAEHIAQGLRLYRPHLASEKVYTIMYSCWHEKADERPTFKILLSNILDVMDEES
T2 sequence (Q13490 whole entry, the tested form may be a part): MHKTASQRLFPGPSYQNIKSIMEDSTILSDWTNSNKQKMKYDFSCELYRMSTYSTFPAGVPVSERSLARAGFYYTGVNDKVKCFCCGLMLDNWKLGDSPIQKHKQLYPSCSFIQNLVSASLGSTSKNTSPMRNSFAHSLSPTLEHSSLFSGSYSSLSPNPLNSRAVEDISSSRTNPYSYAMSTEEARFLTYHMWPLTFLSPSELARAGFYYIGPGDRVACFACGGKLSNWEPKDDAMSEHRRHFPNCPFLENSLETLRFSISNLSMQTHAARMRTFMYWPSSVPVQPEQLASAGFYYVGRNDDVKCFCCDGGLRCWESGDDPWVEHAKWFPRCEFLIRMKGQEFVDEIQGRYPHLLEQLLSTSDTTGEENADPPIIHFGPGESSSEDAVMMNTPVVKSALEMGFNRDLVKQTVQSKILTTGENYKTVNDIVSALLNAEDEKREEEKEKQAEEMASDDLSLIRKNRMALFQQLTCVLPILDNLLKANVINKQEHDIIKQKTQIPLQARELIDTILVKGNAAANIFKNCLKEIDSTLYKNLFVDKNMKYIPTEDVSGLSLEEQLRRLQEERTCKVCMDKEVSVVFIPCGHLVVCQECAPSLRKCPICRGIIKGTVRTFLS
T1 sequence (Q06187 whole entry T474I/C481S, the tested form may be a part): as the sequence (Q06187 whole entry F559A, the tested form may be a part) above, with T474I, C481S, A559F counted along it
T1 sequence (Q13490 whole entry, the tested form may be a part): as the sequence (Q13490 whole entry, the tested form may be a part) above
T3 sequence (Q06187 whole entry, the tested form may be a part): as the sequence (Q06187 whole entry F559A, the tested form may be a part) above, with A559F counted along it
T3 sequence (Q13490 whole entry, the tested form may be a part): as the sequence (Q13490 whole entry, the tested form may be a part) above

As for `CNC(C)C(=O)NC(C(=O)N1CC(NC(=O)COCCN2CCN(CC=CC(=O)N3CCCC(n4nc(-c5ccc(Oc6ccccc6)cc5)c5c(N)ncnc54)C3)CC2)CC1C(=O)NC1CCCc2ccccc21)C1CCCCC1` (stereo not shown) [BCCov], the “degradation of BTK^T474I-C481S” value at BTK^T474I-C481S is on record as “loss of activity”. For the same compound, the “BTK^FL-F559A blot signal normalized to DMSO” value was 1.17 and 1.06 and 0.96 on BTK^FL-F559A (0.00976562 uM); 1.16 and 1.04 and 1.13 at BTK^FL-F559A (0.0195312 uM); 0.92 and 0.90 and 0.89 at BTK^FL-F559A (0.0390625 uM); 0.58 (2×) and 0.71 on BTK^FL-F559A (0.078125 uM); 0.39 and 0.23 and 0.37 at BTK^FL-F559A (0.15625 uM); 0.25 and 0.12 and 0.28 at BTK^FL-F559A (0.3125 uM). In addition, the “BTK^FL-F559A blot signal normalized to DMSO” value was 0.23 and 0.10 and 0.24 at BTK^FL-F559A (0.625 uM); 0.22 and 0.0565 and 0.18 at BTK^FL-F559A (1.25 uM); 0.23 and 0.05 and 0.19 at BTK^FL-F559A (2.5 uM); 0.18 and 0.08 and 0.22 at BTK^FL-F559A (5 uM). In addition, the “degradation of F559A mutant” value at BTK^FL-F559A (Expi293) is “retains potent cellular degradation”. The Dmax on BTK^FL was around 70%.

Broadly, the Dmax is the largest share of the target that was removed. A low value points to a partial loss of target.
